Assay results reported in PubChem BioAssay (NCI).
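Five concentrations, 48 hours, 96-well plates. TGI is the concentration that stops growth completely.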

How the values were obtained:
Assay in all cases: NCI tumour cell line growth inhibition, 48 h
[1] = system: OVCAR-3 ovarian
[2] = system: A498 renal
[3] = system: HS 578T breast
[4] = system: SK-MEL-2 melanoma
[5] = system: HCT-15 colon
[6] = system: NCI/ADR-RES ovarian
[7] = system: OVCAR-5 ovarian
[8] = system: MDA-N
[9] = system: UACC-62 melanoma
[10] = system: HCT-116 colon
[11] = system: T-47D breast
[12] = system: RXF 393 renal
[13] = system: MALME-3M melanoma
[14] = system: NCI-H23 lung
[15] = system: KM12 colon
[16] = system: HOP-62 NSCLC
[17] = system: IGROV1 ovarian
[18] = system: SF-268 CNS
[19] = system: HCC-2998 colon
[20] = system: PC-3 prostate
[21] = system: SF-295 CNS
[22] = system: HOP-92 NSCLC
[23] = system: 786-0 renal
[24] = system: SR leukemia
[25] = system: ACHN renal
[26] = system: SN12C renal
[27] = system: CAKI-1 renal
[28] = system: K-562 leukemia
[29] = system: HL-60(TB) leukemia
[30] = system: SF-539 CNS
[31] = system: HT29 colon
[32] = system: SNB-19 CNS
[33] = system: BT-549 breast
[34] = system: DU-145 prostate
[35] = system: UACC-257 melanoma
[36] = system: NCI-H226 lung
[37] = system: SK-OV-3 ovarian
[38] = system: UO-31 renal
[39] = system: M14 melanoma
[40] = system: A549 NSCLC
[41] = system: CCRF-CEM leukemia
[42] = system: SK-MEL-28 melanoma
[43] = system: RPMI-8226 leukemia
[44] = system: MDA-MB-435
[45] = system: NCI-H522 lung
[46] = system: SW-620 colon
[47] = system: MCF7 breast
[48] = system: COLO 205 colon
[49] = system: MOLT-4 leukemia
[50] = system: EKVX NSCLC
[51] = system: SK-MEL-5 melanoma
[52] = system: OVCAR-4 ovarian
[53] = system: LOX IMVI melanoma
[54] = system: SNB-75 CNS
[55] = system: OVCAR-8 ovarian

For `CCC(=O)Nc1ccc(NCC(=O)Nc2ccc(Cl)cc2)cc1`, the TGI [1] was 33.6 µM, the TGI [2] was 46 µM and the TGI [3] was > 100 µM. The TGI [4] was 30.8 µM, the TGI [5] was 36.4 µM and the TGI [6] was 93.6 µM. The TGI [7] was 32.1 µM, the TGI [8] was 35.3 µM and the TGI [9] was 26.6 µM. For the same compound, the TGI [10] was 30.4 µM, the TGI [11] was 29.8 µM and the TGI [12] was 35.6 µM. For the same compound, the TGI [13] was 34.8 µM, the TGI [14] was 38.9 µM and the TGI [15] was 33 µM. It also gave a TGI [16] of 30.7 µM, a TGI [17] of 64.4 µM and a TGI [18] of 55.4 µM. The TGI [19] was 26.7 µM, the TGI [20] was 31.8 µM and the TGI [21] was > 100 µM. For the same compound, the TGI [22] was 33.4 µM, the TGI [23] was 35.7 µM and the TGI [24] was 94.1 µM. It also gave a TGI [25] of 27.9 µM, a TGI [26] of 35.3 µM and a TGI [27] of 53.7 µM. The TGI [28] was > 100 µM, the TGI [29] was 42.7 µM and the TGI [30] was 36.8 µM. For the same compound, the TGI [31] was 28 µM, the TGI [32] was 42 µM and the TGI [33] was 48.6 µM. The TGI [34] was 35.6 µM, the TGI [35] was 36.8 µM and the TGI [36] was 53.5 µM. For the same compound, the TGI [37] was 64.1 µM, the TGI [38] was 78.9 µM and the TGI [39] was 29.3 µM. The TGI [40] was 56.5 µM, the TGI [41] was 60.3 µM and the TGI [42] was 42.6 µM. The TGI [43] was 70.3 µM, the TGI [44] was 33.2 µM and the TGI [45] was 30.2 µM. For the same compound, the TGI [46] was 74.9 µM, the TGI [47] was 29.8 µM and the TGI [48] was 35.5 µM. It also gave a TGI [49] of 98.2 µM, a TGI [50] of 28.2 µM and a TGI [51] of 30.7 µM. The TGI [52] was 33.3 µM, the TGI [53] was 27.4 µM and the TGI [54] was 64.6 µM. For the same compound, the TGI [55] was 94.4 µM.
